From BindingDB's records for doi:10.1074/jbc.M600168200 (Duke University Medical Center, 2006)

Legend:
[1] = target: Geranylgeranyl transferase type-1 subunit beta [A2V]/Protein farnesyltransferase/geranylgeranyltransferase type-1 subunit alpha (Homo sapiens, UniProt P49354+P53609, A2V); test: In Vitro FTase/GGTase-1 Inhibition Assay; settings: pH 7.7; 30 °C
Protocol: (§1) Compounds were tested as inhibitors of FTase or GGTase-1 in vitro using purified recombinant mammalian enzymes to catalyze the reactions between [3H] FPP or [3H]GGPP, and recombinant protein substrates. Incorporation of radiolabeled isoprenoid into Ras protein substrate was quantitated by precipitation of total protein with acid and scintillation counting. The inhibitory activity of the compounds is reported as an IC50 value, the concentration of inhibitor required to reduce radiolabel incorporation by 50% compared with an uninhibited control experiment.

[2] = target: Protein farnesyltransferase subunit beta/geranylgeranyltransferase type-1 subunit alpha (Homo sapiens, UniProt P49354+P49356); test: In Vitro FTase/GGTase-1 Inhibition Assay; settings: pH 7.7; 30 °C
Protocol: as §1

Geranylgeranyl transferase type-1 subunit beta [A2V]/Protein farnesyltransferase/geranylgeranyltransferase type-1 subunit alpha, sequence (P53609 whole entry A2V, other chains not shown): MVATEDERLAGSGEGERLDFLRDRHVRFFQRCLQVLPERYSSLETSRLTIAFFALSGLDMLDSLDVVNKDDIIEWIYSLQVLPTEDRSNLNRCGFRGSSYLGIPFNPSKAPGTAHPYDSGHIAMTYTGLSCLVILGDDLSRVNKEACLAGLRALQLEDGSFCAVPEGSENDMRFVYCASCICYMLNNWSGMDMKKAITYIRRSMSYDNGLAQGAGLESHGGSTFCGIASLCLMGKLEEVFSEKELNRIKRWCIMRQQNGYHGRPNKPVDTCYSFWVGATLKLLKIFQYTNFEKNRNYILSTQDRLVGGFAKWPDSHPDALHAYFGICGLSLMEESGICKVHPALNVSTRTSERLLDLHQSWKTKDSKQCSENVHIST

CSCCc1c(-c2cccnc2)nn(-c2ccc(Cl)c(Cl)c2)c1OCCCC(=O)N[C@@H](Cc1ccccc1)C(N)=O [N-[(S)-1-carbamoyl-2-phenylethyl]-4-[2-(3,4-di-chlorophenyl)-4-(2-methylsulfanylethyl)-5-pyridin-3-yl-2-H-pyrazol-3-yloxy]butyramide]
IC50 [1]: 8.24 nM | IC50 [2]: > 2000 nM
